Test results as given in the supplement of paper PMC10307832.

How the values were obtained:
Test in all cases: relative viability (nuclei count vs DMSO), 5 days (fraction); higher = more cells survive
[1] = compound: CS(=O)(=O)c1ccc(C(=O)Nc2ccc(Cl)c(-c3ccccn3)c2)c(Cl)c1 [Vismodegib] + Nc1ncn([C@H]2C[C@H](O)[C@@H](CO)O2)c(=O)n1 [Decitabine] (partner 2 µM)
Method in brief: (§1)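 Relative viability divides the nuclei count in treated wells by that in vehicle wells. Lung cancer cell lines were seeded in 1536-well plates, dosed by pin tool the next day, and fixed and stained after 5 days in one step with final 0.05% Triton X-100, 1% formaldehyde and 1 ug/ml Hoechst. Dosing was a single drug or a fixed anchor-drug dose plus five library-drug doses (not always all listed) in √10 steps, and values are medians of duplicate plates imaged at 4×.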

[2] = compound: CS(=O)(=O)c1ccc(C(=O)Nc2ccc(Cl)c(-c3ccccn3)c2)c(Cl)c1 [Vismodegib] + N=C(N)NC(=N)NCCc1ccccc1 [Phenformin] (partner 250 µM)
Method in brief: as §1

[3] = compound: CS(=O)(=O)c1ccc(-c2cnc(N)c(C(=O)Nc3ccccc3)n2)cc1 [VE-821] + Cc1cc(Nc2cc(N3CCN(C)CC3)nc(Sc3ccc(NC(=O)C4CC4)cc3)n2)n[nH]1 [Tozasertib] (partner 0.1 µM)
Method in brief: as §1

[4] = compound: CS(=O)(=O)c1ccc(-c2cnc(N)c(C(=O)Nc3ccccc3)n2)cc1 [VE-821] + CC(C)C[C@H](NC(=O)[C@H](Cc1ccccc1)NC(=O)c1cnccn1)B(O)O [Bortezomib] (partner 0.002 µM)
Method in brief: as §1

Row | Cell Line | relative viability ([1]; first compound 0.08 µM) | relative viability ([1]; first compound 0.253 µM) | relative viability ([1]; first compound 0.8 µM) | relative viability ([1]; first compound 2.53 µM) | relative viability ([1]; first compound 8 µM) | relative viability ([2]; first compound 0.08 µM) | relative viability ([2]; first compound 0.253 µM) | relative viability ([2]; first compound 0.8 µM) | relative viability ([2]; first compound 2.53 µM) | relative viability ([2]; first compound 8 µM) | relative viability ([3]; first compound 0.08 µM) | relative viability ([3]; first compound 0.253 µM) | relative viability ([3]; first compound 0.8 µM) | relative viability ([3]; first compound 2.53 µM) | relative viability ([3]; first compound 8 µM) | relative viability ([4]; first compound 0.08 µM) | relative viability ([4]; first compound 0.253 µM) | relative viability ([4]; first compound 0.8 µM) | relative viability ([4]; first compound 2.53 µM) | relative viability ([4]; first compound 8 µM)
1 | PC-3 [JPC-3] | 0.863 | 0.838 | 0.904 | 0.814 | 0.864 | 0.483 | 0.48 | 0.457 | 0.483 | 0.483 | 0.956 | 0.819 | 0.881 | 0.805 | 0.787 | 0.871 | 0.884 | 0.932 | 0.884 | 0.842
2 | PC-14 | 0.224 | 0.198 | 0.237 | 0.199 | 0.234 | 0.658 | 0.444 | 0.567 | 0.512 | 0.602 | 0.592 | 0.585 | 0.483 | 0.531 | 0.54 | 1.02 | 0.846 | 0.855 | 0.871 | 0.899
3 | RERF-LC-KJ | 0.704 | 0.7 | 0.765 | 0.654 | 0.633 | 0.422 | 0.427 | 0.432 | 0.437 | 0.455 | 0.539 | 0.478 | 0.483 | 0.349 | 0.274 | 1.15 | 1.13 | 0.957 | 1.03 | 0.82
4 | SK-LU-1 | 0.619 | 0.639 | 0.588 | 0.618 | 0.607 | 0.569 | 0.489 | 0.538 | 0.477 | 0.705 | 0.383 | 0.286 | 0.274 | 0.208 | 0.193 | 1.28 | 1.13 | 0.99 | 1.12 | 1.21
5 | SW 1573 |  | 0.425 | 0.509 | 0.519 | 0.615 | 0.493 | 0.353 | 0.4 | 0.323 | 0.385 | 0.164 | 0.174 | 0.181 | 0.216 | 0.197 | 1.23 | 1.05 | 1.15 | 1.15 | 1.01
